From patent US10111822B2, “External dermal composition for anti-ageing and method for producing the same” (Hayashibara Co., Ltd., priority 2012, dated 2018)

Legend:
ZO-1 = test: TJ-related protein ZO-1 in NHEK cells (Western); format: cell-based, human; conditions: 1 mM, 3 days, CaCl2 positive control = 100%, no addition 38%
Procedure: (§1) The following experiment was conducted to examine the effect of ascorbic acid 2-glucoside on the production of TJ-related proteins that constitute cell-cell adhesion structures by focusing on occludin and ZO-1 that are focused on as TJ-related proteins known to exist in a granular layer of epidermis: As a model for typical normal human epidermal cells, NHEK cells were suspended in EpiLife medium (pH 7.4); inoculated to 12-well microplates at a cell density of 1×10^5 cells/well; cultured overnight under the conditions of 37° C. and 5% v/v CO2; and further cultured for three days under the conditions of 37° C. and 5% v/v CO2 after adding either CaCl2 as a positive control to each well to give a final concentration of 0.5 mM, or “AA2G”, a product name of a particulate composition containing anhydrous crystalline ascorbic acid 2-glucoside, commercialized by Hayashibara Co., Ltd., Okayama, Japan, to give a final concentration of 0.5 or 1 mM. […] A sample of 20 μg protein for each lane per each cell extract in respective wells was applied to sodium dodecyl sulfate polyacrylamide gel electrophoresis (SDS-PAGE) with 10% w/v SDS containing DTT, followed by assaying the concentration of occludin or ZO-1 in each cell extract with “Luminate Western HRP Substrates”, a product name of a premixed, ready-to-use chemiluminescent detection reagent using an internal standard “α-Tubulin”, commercialized by Merck KGaA, Darmstadt, Germany, wherein there were used “F-11”, a product name of an anti-occludin mouse monoclonal antibody, commercialized by Santa Cruz Biotechnology, Inc., Texas, USA, or “ZO1-1A12”, a product name of a ZO-1 mouse monoclonal antibody, commercialized by Invitrogen Corporation, Calif., USA, was used as a first antibody; and “PO447”, a product name of a horseradish peroxidase (HRPO) labeled anti-mouse IgG, commercialized by DAKO Japan Inc., Tokyo, Japan, or “PO448”, a product name of an HRPO-labeled anti-rabbit IgG, commercialized by DAKO Japan Inc., Tokyo, Japan, as a secondary antibody. […]

occludin = test: TJ-related protein occludin in NHEK cells (Western); format: cell-based, human; conditions: 1 mM, 3 days, CaCl2 positive control = 100%, no addition 63%
Procedure: as §1

cornified envelope (CE) = test: Production of cornified envelope (CE) in NHEK cells; format: cell-based, human; conditions: 1 mM, 5 days, control 0.63 ± 0.07
Procedure: The following experiment was conducted to examine the effect of ascorbic acid 2-glucoside on the production of CE in a keratinous layer. As a model for typical normal human epidermal cells, normal human epidermal keratinocytes from neonatal foreskin, commercialized by Kurabo Industries Ltd., Osaka, Japan, and abbreviated as “NHEK cells”, hereinafter, were suspended in EpiLife medium (pH 7.4), commercialized by Invitrogen Corporation, Calif., USA, and called “EpiLife medium”, hereinafter, inoculated to 12-well microplates at a cell density of 1×10^5 cells/well, and cultured under the conditions of 37° C. and 5% v/v CO2 overnight. Thereafter, “AA2G”, a product name of a particulate composition containing anhydrous crystalline ascorbic acid 2-glucoside, commercialized by Hayashibara Co., Ltd., Okayama, Japan, was added to each well to give a final concentration of 0.5 or 1 mM, or, as a positive control, CaCl2 was added to each well to give a final concentration of 1 mM; and the cells in each well were cultured at 37° C. for five days while replacing the medium in each well with a fresh preparation of EpiLife medium having the above-identified concentration of ascorbic acid 2-glucoside or CaCl2. Assay for intracellular CE content was carried out in accordance with Tatsuya Hasegawa et al., “Lipids”, Vol. 46, pp. 529 to 535, 2011. After completion of the culture, the culture supernatant in each well was immediately removed, followed by detaching and extracting the cells adhered to the wall of each well by means of pipetting with phosphate buffered saline (PBS, pH 7.4) containing 2% w/v sodium dodecyl sulfate (SDS), and collecting insoluble fractions by centrifugation at 15,000 rpm for 10 min. […] The measured values were regarded as CE production levels. […]

B16 cells = test: Cytotoxicity in B16 cell culture; format: cell-based, mouse; conditions: D-MEM medium, 2.0 mM, 2 h
A431 cells = test: Cytotoxicity in A431 cell culture; format: cell-based, human; conditions: D-MEM medium, 24 h
NHEK cells = test: Cytotoxicity in NHEK cell culture; format: cell-based, human; conditions: EpiLife medium, 24 h
glutathione [1] = test: Production level of glutathione in NHEK cells; format: cell-based, human; conditions: 0.1 mM, 24 h, control = 100%
Procedure: Continuously-cultivated NHEK cells in EpiLife medium were collected, resuspended in EpiLife medium, inoculated to culture plates with 10 cm in diameter in an amount of 1×10^6 cells/10 mL/plate, and cultured for 24 hours. Thereafter, each culture supernatant was removed by sucking, and any of the test solutions was added to the remaining cells in a volume of 10 mL/plate, followed by culturing the cells for another 24 hours. As a control, cells were added with only D-MEM medium in an amount of 10 mL/plate and cultured for 24 hours. Each culture supernatant was removed from each plate, then ice-chilled Dulbecco's PBS (−), commercialized by Nissui Pharmaceutical Co., Ltd., Tokyo, Japan, was added to rinse the remaining cells, which were then collected with a scraper. Glutathione was quantified on “Glutathione Assay Kit”, a product name of glutathione assay kit commercialzied by BioVision, Inc., San Francisco, USA. In this experiment, the control and test solutions in respective three plates were assayed for glutathione production level for each plate and averaged for obtaining the glutathione production level of each solution. A 5% v/v CO2 incubator was used for culturing NHEK cells in any case. Relative values of test samples were determined with the proviso that the production levels of reduced glutathione and total glutathione in NHEK cells that had been cultured with only EpiLife medium were respectively regarded as 100%, and the results are in Table 5.

glutathione [2] = test: Production level of glutathione in A431 cells; format: cell-based, human; conditions: 0.1 mM, 24 h, control = 100%
Procedure: To Dulbecco's MEM medium, containing 10% v/v calf fetal serum and an antibiotic (abbreviated as “D-MEM”, hereinafter), were added ascorbic acid 2-glucoside, a reagent grade specimen commercialized by Hayashibara Co., Ltd., Okayama, Japan, or L-ascorbic acid, a special reagent grade specimen commercialized by Wako Pure Chemical Industries, Ltd., Tokyo, Japan, […]
Continuously-cultivated A431 cells in D-MEM medium were collected, resuspended in D-MEM medium, inoculated to culture plates with 10 cm in diameter (φ) in an amount of 1×10^6 cells/10 mL/plate, and cultured for 24 hours. Thereafter, the culture supernatants were removed by sucking, and the remaining cells were added with any of the test solutions in an amount of 10 mL/plate and cultured for another 24 hours. As a control, cells were added with only D-MEM medium in an amount of 10 mL/plate and cultured for 24 hours. To each plate, which had been removed its culture supernatant, was added ice-chilled Dulbecco's PBS (−) commercialized by Nissui Pharmaceutical Co., Ltd., Tokyo, Japan, to wash cells, which were then collected with a scraper. Glutathione was quantified with “Glutathione Assay Kit”, a commercially available glutathione assay kit commercialized by BioVision, Inc., San Francisco, USA. In this experiment, the control and test solutions were respectively assayed by using three plates respectively, and the data were averaged for obtaining a glutathione production level for each plate. A5% v/v CO2 incubator was used for culturing A431 cells in any case. Relative values of test samples were determined with the proviso that the production levels of reduced glutathione and total glutathione levels in A431 cells that had been cultured with only D-MEM medium were respectively regarded as 100%, and the results are in Table 4.

| SMILES | ZO-1 Concentration in cell extract (ZO-1) [%] | Occludin concentration in cell extract (occludin) [%] | OD310nm Value (CE Production level) (cornified envelope (CE)) | cytotoxicity (B16 cells) | cytotoxicity (A431 cells; 1.0 mM) | upper limit concentration that does not induce cytotoxicity (A431 cells) [mM] | cytotoxicity (NHEK cells; 0.5 mM) | upper limit concentration that does not induce cytotoxicity (NHEK cells) [mM] | Reduced glutathione (glutathione [1]) [%] | Total glutathione (glutathione [1]) [%] | Reduced glutathione (glutathione [2]) [%] | Total glutathione (glutathione [2]) [%] |
| --- | --- | --- | --- | --- | --- | --- | --- | --- | --- | --- | --- | --- |
| [Ca+2].[Cl-].[Cl-] [CaCl2, reference compound] | 100 | 100 | 1.07 ± 0.07 | – | – | – | – | – | – | – | – | – |
| O=C1O[C@H]([C@@H](O)CO)C(O)=C1O [L-ascorbic acid] | – | – | – | induced cytotoxicity | cytotoxicity was induced | 0.1 | cytotoxicity induced | 0.1 | 102 | 103 | 103 | 102 |
